Data from patent US20070265211A1, “Novel composition and method effective in inhibiting the atherogenic process” (priority 2006, published 2007).

Key:
[1] = system: vascular smooth muscle cells (VSMC) from guinea-pig aorta; conditions: 0.5-2.0 mM ascorbate; direct and matrix-mediated effects; cited from earlier work
[2] = system: Human aortic smooth muscle cells; test: SMC proliferation by [3H]-thymidine incorporation into cellular DNA; type: cell-based; conditions: physiologically relevant concentration
Protocol: Human aortic smooth muscle cells (SMC, obtained from Clonetics) were cultured in DMEM (Dulbecco's modified Eagle's medium), supplemented with 10% fetal bovine serum, penicillin (100 μg/ml) and streptomycin (100 μg/ml) at 37° C. in a humidified atmosphere containing 5% CO2, and were split 1:3 to 1:5 upon reaching the confluence. SMC at passages 5-8 were used in experiments. […] SMC proliferation was assayed by [3H]-thymidine incorporation into cellular genetic material. Cells were plated in 24-well plates at a density of 10,000 cells per cm^2 in 0.5 ml of DMEM supplemented with 2% FBS. The attached cells were supplied every 24 hours with fresh growth medium plus additions, as specified in the protocols. Test agents included the nutrient mixture and individual components. […] Cell proliferation was measured 3 days later by the addition of 1 pCi/ml [3H]-thymidine to the cell culture for the last 4 hours of the experiment. […] Samples were mixed with scintillation fluid and counted using a liquid scintillation counter (model 6500 LS, Beckman Instruments, USA). Cellular DNA-incorporated radioactivity was expressed as d/min per well. In some wells cells were stained with Hematoxylin/Eosin and cell nucleus were counted under microscope in standard way chosen views covering total 65% of the well area. Cell counting data expressed as cell number per well.

Row | Compound | Proliferation of VSMC from guinea-pig aorta [1] | Cultured human aortic SMC growth rate (rate of cellular DNA synthesis) [2]
1 | O=C1O[C@H]([C@@H](O)CO)C(O)=C1O [ascorbate, ascorbic acid] | dose-dependent decreased proliferation | 
2 | O=C(O[C@@H]1Cc2c(O)cc(O)cc2O[C@@H]1c1cc(O)c(O)c(O)c1)c1cc(O)c(O)c(O)c1 [epigallocatechin gallate] |  | significantly reduced
